Laboratory results as given in US20150024031A1, “Methods And Compositions For Reducing Pain, Inflammation, And/Or Immunological Reactions Associated With Parenterally Administering A Primary Therapeutic Agent” (BAXTER INTERNATIONAL INC., priority 2013, published 2015).
Each block holds one molecule with its values, some of them ahead of it.

Key:
[1] = test system: Lewis rats inoculated with peptidoglycan-polysaccharide (PG-PS); experiment: Histopathological examination of stifle joints (synovial inflammation); format: in vivo; settings: scale of 1 (no inflammation) to 3, necropsy Day 30
Description: (§1) The ability of a dispersion comprising microparticles of an analgesic agent according to the invention to mediate pain and inflammation was investigated in an animal model. Lewis rats were inoculated with peptidoglycan-polysaccharide (PG-PS) (5.4 mg/mL, Lee Laboratories) by intraarticular injection in the right knee two weeks prior to the start of the examination period, i.e., on Day −14. PG-PS induces inflammation highly representative of that produced by certain drugs and is also used in models of arthritis. On Day 0, animals were dosed via single intraarticular injection of 70 μL saline, daily oral celecoxib 10 mg/kg, or single intraarticular injection of 70 μL (8.5 mg) ropivacaine suspension. Two hours post-dosing, the inflammatory response was activated by a tail vein injection of 0.5 mL of 0.4 mg/mL PG-PS. […] The animals in the saline and ropivacaine groups were re-dosed on Day 23, after the initial inflammatory response subsided, and the inflammatory response was reactivated on Day 28 by tail vein injection. The oral celecoxib was dosed 10 mg/kg daily throughout the study except for Day 29, when the dose was increased to 50 mg/kg. The test groups are described in Table 4:
(§2) Drug quantitation was performed on blood and plasma samples to assess the pharmacokinetic profiles of the drugs and the levels to which the drugs were present systemically. Knee joint tissues were also assayed for drug concentration in order to determine if any residual drug was present in the joints at the conclusion of the study. In addition, histological analysis and cytokine analysis were performed on knee joint tissues collected during necropsy on Day 30. […] Quantitation of celecoxib was performed on plasma and whole blood samples collected from the rats in Groups 2 to 5 at timepoints of 1, 6, 12, and 24 hours, and at 7, 14, 21, and 29 days. […] Celecoxib levels in Group 2 (saline control) were primarily below the quantitation limit, as expected. Celecoxib was also detected in the knee tissues from Groups 3, 4, and 5, with the Group 3 levels being the highest, followed by Group 4, and finally Group 5. […] Ropivacaine was undetected in the rat knee tissues.

[2] = slow release depot dosage form; cited from earlier work
[3] = relative, bupivacaine and ropivacaine; cited from earlier work
[4] = Drug quantitation in blood, plasma and knee joint tissues; format: in vivo, Lewis rats; settings: for drug in knee tissues: end of study
Description: as §1, §2

Structure (SMILES): Cc1ccc(-c2cc(C(F)(F)F)nn2-c2ccc(S(N)(=O)=O)cc2)cc1 [Oral Celecoxib]
- synovial inflammation score, Animal 1 [1]: 3
- synovial inflammation score, Animal 2 [1]: 3
- synovial inflammation score, Animal 3 [1]: 3
- synovial inflammation score, Animal 4 [1]: 2

Structure (SMILES): CCCCN1CCCCC1C(=O)Nc1c(C)cccc1C (centres unmarked) [bupivacaine]
- minimum tissue drug level found to alleviate pain [2]: 30 µg/mL
- equipotent concentration [3]: 1

- drug in knee tissues ([4]; Group 3, 10% suspension intraarticular): highest
- interval up to which measurable levels were detected in the blood ([4]; Group 3, intraarticular 70 μL 10% suspension): ≤ 14 days
- blood levels compared to Group 3 ([4]; Group 4 (5% suspension) vs Group 3 (10% suspension)): systematically lower
- drug in knee tissues ([4]; Group 4, 5% suspension intraarticular): detected
- interval up to which measurable levels were detected in the blood ([4]; Group 4, intraarticular 70 μL 5% suspension): ≤ 14 days
- blood level on Day 29 ([4]; Group 4, intraarticular 70 μL 5% suspension, re-dosed Day 23): measurable levels
- drug in knee tissues ([4]; Group 5, oral 10 mg/kg/day): detected
- persistence of systemic levels in blood ([4]; after intraarticular injection, rat blood): approximately 2 weeks
Structure (SMILES): Cc1ccc(-c2cc(C(F)(F)F)nn2-c2ccc(S(N)(=O)=O)cc2)cc1 [celecoxib]
